This assay concerns the target T1, human androgenic receptor (Homo sapiens, UniProt P10275).
T1 construct: host or cells: Saccharomyces cerevisiae
T1 sequence (P10275 1-920): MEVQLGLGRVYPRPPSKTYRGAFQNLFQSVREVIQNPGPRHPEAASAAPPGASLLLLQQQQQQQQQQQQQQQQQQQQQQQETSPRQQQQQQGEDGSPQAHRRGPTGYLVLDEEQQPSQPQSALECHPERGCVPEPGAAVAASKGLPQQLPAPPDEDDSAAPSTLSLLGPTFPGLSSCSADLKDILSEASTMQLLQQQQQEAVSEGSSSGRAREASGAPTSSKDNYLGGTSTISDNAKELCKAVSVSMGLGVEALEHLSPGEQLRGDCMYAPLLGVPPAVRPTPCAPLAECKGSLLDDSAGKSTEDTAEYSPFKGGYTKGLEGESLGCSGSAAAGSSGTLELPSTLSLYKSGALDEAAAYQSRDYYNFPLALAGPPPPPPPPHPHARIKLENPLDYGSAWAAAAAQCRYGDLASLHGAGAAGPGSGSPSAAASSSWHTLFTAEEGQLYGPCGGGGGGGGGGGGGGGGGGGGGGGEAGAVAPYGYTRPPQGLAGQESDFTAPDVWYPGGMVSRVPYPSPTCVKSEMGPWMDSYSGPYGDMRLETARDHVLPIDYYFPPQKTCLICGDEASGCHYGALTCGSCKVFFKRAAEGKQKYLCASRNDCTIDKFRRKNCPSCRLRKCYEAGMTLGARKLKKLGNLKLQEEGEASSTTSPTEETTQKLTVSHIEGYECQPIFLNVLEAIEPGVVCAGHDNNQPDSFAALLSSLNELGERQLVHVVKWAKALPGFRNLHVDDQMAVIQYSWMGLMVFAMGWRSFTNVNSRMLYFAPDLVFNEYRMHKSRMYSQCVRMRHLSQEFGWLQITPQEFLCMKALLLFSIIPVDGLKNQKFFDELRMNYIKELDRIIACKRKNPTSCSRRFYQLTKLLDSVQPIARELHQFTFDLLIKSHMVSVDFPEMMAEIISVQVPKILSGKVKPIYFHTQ
Kind of assay: Yeast-based androgenic reporter assay, antagonistic. In kind it is cell-based. The settings on record: in the presence of 5α-dihydrotestosterone. The protocol:
An endocrine bioassay kit (Xenometrix AG, Allschwil, Switzerland) was used to test for a potential residual androgenic activity of the selected agents. Genetically modified yeast cells (Saccharomyces cerevisiae) containing the human androgenic receptor gene integrated into a yeast chromosome, as well as an expression plasmid with the sequences of both the androgen responsive element and a lacZ reporter gene were cultured in humidified air at 31°C with agitation for 2 days. The appropriate concentrations of the test compounds and a CPRG substrate solution (chlorophenol red-β-D-galactopyranoside) for β-galactosidase were added into a 96-well microplate according to the instructions of the manufacturer. Androgen agonistic and antagonistic properties of the test compounds were determined by a colorimetric assay. For the antagonistic measurements the medium was supplemented with 5α-dihydrotestosterone (DHT). Once the reporter gene is expressed, β-galactosidase is secreted into the medium, and converts the yellow CPRG substrate into a red product, which can be quantified at 570 nm. Quantities of this red product correlate with the liberation of β-galactosidase, which is increased when an agonistic effect is present, while it is decreased when the test compound exerts an antagonistic effect. […]
A general note: Reporter assays use an easily measured gene product as a stand-in for the process of interest.

The structures appear in SMILES notation.

Consider `C[C@]12CC[C@H]3[C@@H](CCC4=CC(=O)CC[C@@H]43)[C@@H]1CC[C@H]2Cl` [Compound 3], for which the androgen antagonistic activity entry is “no antagonistic activity”.

These data come from PMC6072853 (Frontiers in Pharmacology, 2018).
